This note sets out measurements from patent publication US20250332154A1, “USE OF NAPHTHOQUINE PHOSPHATE IN PREPARATION OF A MEDICAMENT FOR TREATING AUTOIMMUNE DISEASES” (SHANGHAI PHARMACEUTICALS INDUSTRY CO., LTD, priority 2022, published 2025).

For orientation: IC50 means the concentration that gives 50% inhibition. As a reminder, the CC50 is the concentration giving 50% cytotoxicity. The low end stands for greater toxicity to the cells, the high end for lower toxicity to the cells.

Counter-ions that a name gives are not always drawn. Like-named read-outs stand apart in the source and are kept apart here.

The test system of series [1] is mouse whole spleen lymphocytes (LPS-induced B cell activation and proliferation). The series is described as follows: LPS-induced lymphocyte proliferation assay (3H-thymidine). The format is cell-based. The settings on record: for IC50: LPS 10 μg/ml, 48 hours, 3H-thymidine, read-out: LPS IC50. How it is done:
BALB/c mice were sacrificed by cervical dislocation, and spleens were aseptically excised to prepare whole spleen lymphocytes. The cells were adjusted to the required concentration.
A suspension of mouse spleen lymphocytes was inoculated into a 96-well plate at 5×10^5/well, and ConA (final concentration: 1 μg/ml) or LPS (final concentration: 10 μg/ml) and the above 10 concentration gradients of the compound were added. Corresponding cell control wells without ConA and LPS, as well as medicament-free stimulated control wells, were set up. The cells were cultured in a 37° C., 5% CO2 incubator for 48 hours. Eight hours before the end of the culture, ^3H-thymidine was added, and the culture continued until the end of the experiment (i.e., the aforementioned 48 hours). The cells were collected onto glass fiber membranes using a cell collector.
ConA and LPS, as mitogens, stimulated proliferation and differentiation of T and B lymphocytes, respectively. This process is similar to the activation process of lymphocytes in vivo. Therefore, mitogen-induced lymphocyte proliferation is commonly used as an indicator to evaluate functionality of lymphocytes.

Series [2] concerns IL-1β. The series is described as follows: IL-1β secretion by TLRs-L-stimulated mouse whole spleen lymphocytes (ELISA). The settings on record: Lymphocyte, 48 h, read-out: IB-1β IC50. The format is cell-based. On the procedure:
BALB/c mice were sacrificed by cervical dislocation, and spleens were aseptically excised to prepare whole spleen lymphocytes. The cells were adjusted to 5×10^6 cells/ml. Hydroxychloroquine sulfate was diluted with a 3-fold gradient into 3 concentrations starting from 30 μM: 30, 10 and 3 μM; naphthoquine phosphate was diluted with a 3-fold gradient into 3 concentrations starting from 10 μM: 10, 3 and 1 μM.
Mouse spleen lymphocytes were inoculated into a 96-well plate at 100 μl/well, and the stimulant TLR4-L (final concentration: 10 μg/ml), TLR7-L (final concentration: 5 μg/ml) or TLR9-L (final concentration: 1 μM) and the compounds diluted with the above concentration gradients were added. A corresponding stimulation control and a cell control (without stimulation) were set up. The cells were cultured in a 37° C., 5% CO2 incubator for 48 hours. After the end of the culture, the cell culture supernatants were collected, and the levels of IL-1β, IL-6, and IL-10 were measured by ELISA.
On the technique in general: In an ELISA, binding on a coated surface is turned into a signal by an enzyme label.

A further series has as its system purified mouse B cells. The series is described as follows: B cell proliferation assay, TLRs-L-stimulated purified mouse B cells (3H-TdR). It counts as cell-based. Particulars: for IC50: Mus musculus, B-cell, 48 h, purified B cells, stimulant TLR4-L 10 μg/ml; for proliferation of purified mouse splenic B cells and production of inflammatory cytokines and antibodies induced by specific TLR signals: in words. How it is done:
(§1) BALB/c mice were sacrificed by cervical dislocation, and spleens were aseptically excised to prepare spleen lymphocytes. The cells were adjusted to 1×10^8 cells/ml, blocked with 2.4G2 (final concentration: 10 μg/ml) for 20 min, cultured with PE-CD19 (final concentration: 5 μg/ml) for 20 min, washed with MACS buffer, centrifuged at 4° C., 300G for 10 min, 100 μl anti-PE beads were added per 1×10^8 cells, incubated with 900 μl MACS buffer for 15 min, washed with MACS buffer, centrifuged at 4° C., 300G for 10 min. The supernatant was discarded. 500 μl MACS buffer was added per 1×10^8 cells to resuspend the cells. MACS column was used for separation. Magnetically labeled cells were retained on the column. The MACS column was removed from the magnetic field and then eluted.
Hydroxychloroquine sulfate was diluted 2-fold into 3 concentrations starting from 8 μM: 8, 4 and 2 μM. Naphthoquine phosphate was diluted 2-fold into 3 concentrations starting from 0.5: 0.5, 0.25 and 0.125 μM. A suspension of purified mouse B cells was inoculated into a 96-well plate at 4×10^5/well, and the stimulant TLR4-L (final concentration: 10 μg/ml), TLR7-L (final concentration: 5 μg/ml) or TLR9-L (final concentration: 1 μM) and the gradient diluted compounds were added. A corresponding stimulation control and a cell control (without stimulation) were set up. The cells were cultured in 37° C., 5% CO2 incubator for 48 hours. Eight hours before the end of the culture, ^3H-TdR was added, and the culture was continued until the end of the experiment. The cells were collected onto glass fiber membranes using a cell collector. 5 ml scintillation fluid was added, and the values of radioactive counts per minute were read on a Beta counter (2450 Microplate Counter, PerkinElmer).

Series [3] is described as follows: Non-specific cytotoxicity assay (MTT), RAW264.7. It counts as cell-based, mouse. The settings on record: mouse, RAW264.7 cells. On the procedure:
RAW264.7 cells were inoculated into a 96-well plate at 1×10^5/well and allowed to adhere to the wall for 6 hours in a 37° C., 5% CO2 incubator. […] A corresponding solvent control (cell control) and a culture medium background control (blank control) were set up. The cells were cultured in a 37° C., 5% CO2 incubator for 48 hours. Fifteen minutes before the end of the culture, 20 μl of 5 mg/ml MTT was added. At the end of the culture, the supernatant was aspirated and discarded, 200 μl DMSO was added to dissolve the crystals.

In series [4] the test system is IL-1β. The series is described as follows: IL-1β production by LPS-induced RAW264.7 cells (ELISA). The format is cell-based, mouse. Particulars: for IC50: Mus musculus, LPS 10 μg/ml, RAW264.7, read-out: IB-1β IC50; for production of LPS-induced IL-1β: RAW264.7, in words. How it is done: (§2) RAW264.7 cells were inoculated into a 96-well plate at 1×10^5/well and allowed to adhere to the wall for 6 hours in a 37° C., 5% CO2 incubator. […] After the cells adhered to the wall, the stimulant LPS (final concentration: 10 μg/ml) and the gradient-diluted compounds were added. A corresponding stimulation control and a cell control (without stimulation) were set up. After the end of the culture, the cell culture supernatants were collected, and the levels of TNF-α, IL-1β and IL-6 were measured by ELISA.

The test system of a further series is IgM. The series can be described thus: IgM secretion by TLRs-L-stimulated purified mouse B cells (ELISA). It counts as cell-based. The settings on record: B-cell, 120 h, stimulant TLR4-L 10 μg/ml. How it is done:
as §1
(§3) A suspension of purified mouse B cells was inoculated into a 96-well plate at 4×10^5/well. Hydroxychloroquine sulfate was diluted with a 2-fold gradient into 3 concentrations, starting from 8 μM: 8, 4 and 2 μM. Naphthoquine phosphate was diluted with a 2-fold gradient into 3 concentrations starting from 0.5 μM.: 0.5, 0.25 and 0.125 μM. […] After the end of the culture, the cell culture supernatants were collected, and the levels of IgG and IgM were measured by ELISA.

The test system of a further series is IL-6. The series can be described thus: IL-6 production by LPS-induced RAW264.7 cells (ELISA). The format is cell-based, mouse. The settings on record: for production of IL-6: LPS-induced RAW264.7, in words; for IC50: Mus musculus, LPS 10 μg/ml, RAW264.7. How it is done: as §2
A further series has as its system IgG. The series can be described thus: IgG secretion by TLRs-L-stimulated purified mouse B cells (ELISA). The settings on record: B-cell, 120 h, stimulant TLR4-L 10 μg/ml. It counts as cell-based. On the procedure:
as §1, §3

In the case of `CCN(CCO)CCCC(C)Nc1ccnc2cc(Cl)ccc12` (stereo not shown) [Hydroxychloroquine Sulfate, hydroxychloroquine sulfate], the concentration for half-maximal inhibition (IC50) was 14.9 µM in series [1] (listed as Hydroxychloroquine Sulfate (Zhongxi Sunve)); 14.9 µM in series [1] (Mus musculus, Lymphocyte); 32 µM with IL-1β [2] (stimulant TLR4-L 10 μg/ml); 41.6 µM in the series on IL-1β [2] (stimulant TLR9-L 1 μM); 9.95 µM in the series with purified mouse B cells; 3.5 µM with IL-1β [4]. The IC50 in the series on IgM is > 8 µM; in the series on IL-6 it was 16.5 µM; with IgG, > 8 µM. The “proliferation of purified mouse splenic B cells and production of inflammatory cytokines and antibodies induced by specific TLR signals” value with purified mouse B cells was “inhibited”. The compound also had a CC50 at 48 h in series [3] of 24.4 µM. In addition, in the series on IL-1β [4], the “production of LPS-induced IL-1β” value is “significantly inhibited”. Also, in the series on IL-6, the “production of IL-6” value is reported as “no significant effect”.
`CC(C)(C)NCc1cc(Nc2ccnc3cc(Cl)ccc23)c2c(c1O)CCCC2.O=P(O)(O)O.O=P(O)(O)O` [Naphthoquine Phosphate, Naphthoquine phosphate]: the IC50 was 0.08 µM in series [1] (Mus musculus, Lymphocyte); 3.35 µM with IL-1β [2] (stimulant TLR4-L 10 μg/ml); 0.19 µM in the series with purified mouse B cells; 1.59 µM in the series with IL-1β [4]; 0.21 µM in the series with IgM; > 10 µM in the series with IL-6. Further, in the series with IgG, 0.41 µM corresponded to half-maximal inhibition (IC50). In addition, the “effect on LPS-induced B cell activation and proliferation” value in series [1] (in words) is “significant inhibitory activity”. Besides, in the series on purified mouse B cells, the “proliferation of purified mouse splenic B cells and production of inflammatory cytokines and antibodies induced by specific TLR signals” value is “inhibited”. In series [3], it took 8.73 µM to reach half-maximal cytotoxicity (CC50 at 48 h). Moreover, the “production of LPS-induced IL-1β” value in the series with IL-1β [4] is reported as “significantly inhibited”. Further, the “production of IL-6” value in the series with IL-6 is listed as “no significant effect”.
